The target of test [1] is T1, CDK2/CycE (Homo sapiens, UniProt P24941).
T1 construct: GST; purchased ProQinase GmbH (Freiburg, Germany); host or cells: insect cells (Sf9)
The test is described as follows: CDK2/CycE high ATP kinase assay (TR-FRET, 2 mM ATP). The class given is biochemical. Conditions: Method 2b. The gist of the method: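 Recombinant GST-tagged human CDK2 and CycE from Sf9 cells (about 10 ng/ml), biotinylated peptide substrate, 2 mM ATP, Tris pH 8.0 buffer; compound pre-incubated 15 min at 22° C. Phospho-substrate detected by TR-FRET with anti-RB(pSer807/pSer811) antibody, 665/622 nm ratio; normalised to no-inhibitor and no-enzyme controls.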
Background: In TR-FRET formats the signal depends on donor and acceptor labels being close together.

The subject of test [2] is B16F10 cells. Description: Proliferation assay, B16F10. The class given is cell-based. Conditions: Mus musculus, B16-F10, 96 h; 4 days, crystal violet; read-out: Inhibition of B16F10 cell proliferation IC50. The procedure: Cultivated tumour cells (HeLa, human cervical tumour cells, ATCC CCL-2; NCI-H460, human non-small cell lung carcinoma cells, ATCC HTB-177; DU 145, hormone-independent human prostate carcinoma cells, ATCC HTB-81; HeLa-MaTu-ADR, multidrug-resistant human cervical carcinoma cells, EPO-GmbH Berlin; Caco-2, human colorectal carcinoma cells, ATCC HTB-37; B16F10, mouse melanoma cells, ATCC CRL-6475) were plated at a density of 5,000 cells/well (DU145, HeLa-MaTu-ADR), 3,000 cells/well (NCI-H460, HeLa), 1,500 cells/well (Caco-2), or 1,000 cells/well (B16F10) in a 96-well multititer plate in 200 μL of their respective growth medium supplemented 10% fetal calf serum. After 24 hours, the cells of one plate (zero-point plate) were stained with crystal violet (see below), while the medium of the other plates was supplemented with the test substances in various concentrations (0 μM, as well as in the range of 0.0001-10 μM; the final concentration of the solvent dimethyl sulfoxide was adjusted to 0.1%) using a Hewlett-Packard HP D300 Digital Dispenser. The cells were incubated for 4 days in the presence of test substances. Cell proliferation was determined by staining the cells with crystal violet: the cells were fixed by adding 20 μl/measuring point of an 11% glutaric aldehyde solution for 15 minutes at room temperature. After three washing cycles of the fixed cells with water, the plates were dried at room temperature. The cells were stained by adding 100 μl/measuring point of a 0.1% crystal violet solution (pH 3.0). After three washing cycles of the stained cells with water, the plates were dried at room temperature. The dye was dissolved by adding 100 μl/measuring point of a 10% acetic acid solution. The extinction was determined by photometry at a wavelength of 595 nm. The change of cell number, in percent, was calculated by normalization of the measured values to the extinction values of the zero-point plate (=0%) and the extinction of the untreated ([…]) cells (=100%). The IC50 values (inhibitory concentration at 50% of maximal effect) were determined by means of a 4 parameter fit. A2780 human ovarian carcinoma cells (ECACC #93112519) and non-adherent MOLM-13 human acute myeloid leukemia cells (DSMZ ACC 554) were seeded at a density of 3,000 cell/well (A2780) or 5,000 cells/well (MOLM-13) in a 96-well multititer plate in 150 μL of growth medium supplemented 10% fetal calf serum. After 24 hours, cell viability of one plate (zero-point plate) was determined with the Cell Titre-Glo Luminescent Cell Viability Assay (Promega), while the medium of the other plates was supplemented with the test substances in various concentrations (0 μM, as well as in the range of 0.0001-10 μM; the final concentration of the solvent dimethyl sulfoxide was adjusted to 0.1%) using a Hewlett-Packard HP D300 Digital Dispenser. Cell viability was assessed after 72-hour exposure with the Cell Titre-Glo Luminescent Cell Viability Assay (Promega). IC50 values (inhibitory concentration at 50% of maximal effect) were determined by means of a 4 parameter fit on measurement data which were normalized to vehicle (DMSO) treated cells (=100%) and measurement readings taken immediately before compound exposure (=0%).

Drawing on patent publication US11254690B2, “PTEFb inhibiting macrocyclic compounds” (BAYER AKTIENGESELLSCHAFT, priority 2017, dated 2022), this text covers IC50 for twelve molecules.

SMILES strings stand for the structures.

Turning to `CC1CCCOc2cc(ccc2F)-c2cc(ncc2F)Nc2cc(CS(C)(=O)=O)cc(n2)O1` (racemic) [Example 28, 3,20-difluoro-14-methyl-10-[(methylsulfonyl)methyl]-13,18-dioxa-5,7,24-triazatetracyclo[17.3.1.1^2,6.1^8,12]pentacosa-1(23),2(25),3,5,8(24),9,11,19,21-nonaene], in test [1], the IC50 stood at 360 nM. Consider `CS(=N)(=O)Cc1cc2cc(c1)OCCCCOc1cc(ccc1F)-c1nc(ncc1F)N2` (racemic) [Example 4, (rac)-3,20-difluoro-10-[(S-methylsulfonimidoyl)methyl]-13,18-dioxa-5,7,25-triazatetracyclo[17.3.1.1^2,6.1^8,12]pentacosa-1(23),2(25),3,5,8(24),9,11,19,21-nonaene], for which the IC50 in test [1] worked out at 1540 nM; in test [2], 176 nM. For `CS(=N)(=O)Cc1cc2cc(c1)OCCCCOc1c(F)ccc(c1F)-c1nc(ncc1F)N2` (racemic) [Example 8, (rac)-3,20,23-trifluoro-10-[(S-methylsulfonimidoyl)methyl]-13,18-dioxa-5,7,25-triazatetracyclo[17.3.1.1^2,6.1^8,12]pentacosa-1(23),2(25),3,5,8(24),9,11,19,21-nonaene], in that order: 6520 nM and 224 nM.

Turning to `CC1CCCOc2cc(ccc2F)-c2cc(ncc2F)Nc2cc(CS(C)(=N)=O)cc(n2)O1` (single isomer, unassigned) [Example 17, 3,20-difluoro-14-methyl-10-[(S-methylsulfonimidoyl)methyl]-13,18-dioxa-5,7,24-triazatetracyclo[17.3.1.1^2,6.1^8,12]pentacosa-1(23),2(25),3,5,8(24),9,11,19,21-nonaene], the IC50 in test [1] came to 132 nM. For the molecule `CC(C)(C)OC(=O)N=S(C)(=O)Cc1cc2cc(c1)OCCCCOc1cc(ccc1F)-c1nc(ncc1F)N2` (racemic) [Example 3, (rac)-tert-butyl [{[3,20-difluoro-13,18-dioxa-5,7,25-triazatetracyclo[17.3.1.1^2,6.1^8,12]pentacosa-1(23),2(25),3,5,8(24),9,11,19,21-nonaen-10-yl]methyl}(methyl)oxido-λ^6-sulfanylidene]carbamate], the IC50 in test [1] was over 20000 nM; in test [2], 270 nM.

As to `CC(C)(C)OC(=O)N=S(C)(=O)Cc1cc2cc(c1)OCCCCCOc1cc(ccc1F)-c1nc(ncc1F)N2` (racemic) [Example 5, (rac)-tert-butyl [{[3,21-difluoro-13,19-dioxa-5,7,26-triazatetracyclo[18.3.1.1^2,6.1^8,12]hexacosa-1(24),2(26),3,5,8(25),9,11,20,22-nonaen-10-yl]methyl}(methyl)oxido-λ^6-sulfanylidene]carbamate], the IC50 in test [1] was over 20000 nM; in test [2] it was 993 nM. In turn, `CC1CCCCOc2cc(ccc2F)-c2cc(ncc2F)Nc2cc(CS(C)(=N)=O)cc(n2)O1` (single isomer, unassigned) [Example 21, 3,21-difluoro-14-methyl-10-[(S-methylsulfonimidoyl)methyl]-13,19-dioxa-5,7,25-triazatetracyclo[18.3.1.1^2,6.1^8,12]hexacosa-1(24),2(26),3,5,8(25),9,11,20,22-nonaene] registered an IC50 in test [1] of 2450 nM.

For the molecule `CS(=N)(=O)Cc1cc2cc(c1)OCCCCCOc1cc(ccc1F)-c1nc(ncc1F)N2` (racemic) [Example 6, (rac)-3,21-difluoro-10-[(S-methylsulfonimidoyl)methyl]-13,19-dioxa-5,7,26-triazatetracyclo[18.3.1.1^2,6.1^8,12]hexacosa-1(24),2(26),3,5,8(25),9,11,20,22-nonaene], the results for the IC50 in test [1] and in test [2] were 16200 nM and 171 nM, respectively. The like results for `CS(=N)(=O)Cc1cc2nc(c1)OCCCCOc1cc(ccc1F)-c1cc(ncc1F)N2` (racemic) [Example 2, (rac)-3,20-difluoro-10-[(S-methylsulfonimidoyl)methyl]-13,18-dioxa-5,7,24-triazatetracyclo[17.3.1.1^2,6.1^8,12]pentacosa-1(23),2(25),3,5,8(24),9,11,19,21-nonaene] were, in that order, 737 nM and 110 nM. As to `CC1CCCOc2cc(ccc2F)-c2cc(ncc2F)Nc2cc(CS(C)(=N)=O)cc(n2)O1` (single isomer, unassigned) [Example 16, 3,20-difluoro-14-methyl-10-[(S-methylsulfonimidoyl)methyl]-13,18-dioxa-5,7,24-triazatetracyclo[17.3.1.1^2,6.1^8,12]pentacosa-1(23),2(25),3,5,8(24),9,11,19,21-nonaene], the IC50 in test [1] is 144 nM. On to `CS(=N)(=O)Cc1cc2cc(c1)OCCCOc1cc(ccc1F)-c1nc(ncc1F)N2` (racemic) [Example 10, (rac)-3,19-difluoro-10-[(S-methylsulfonimidoyl)methyl]-13,17-dioxa-5,7,24-triazatetracyclo[16.3.1.1^2,6.1^8,12]tetracosa-1(22),2(24),3,5,8(23),9,11,18,20-nonaene], for which the IC50 in test [1] worked out at 4750 nM; in test [2], 209 nM. The molecule `CC1CCCCOc2cc(ccc2F)-c2cc(ncc2F)Nc2cc(CS(C)(=N)=O)cc(n2)O1` (single isomer, unassigned) [Example 22, 3,21-difluoro-14-methyl-10-[(S-methylsulfonimidoyl)methyl]-13,19-dioxa-5,7,25-triazatetracyclo[18.3.1.1^2,6.1^8,12]hexacosa-1(24),2(26),3,5,8(25),9,11,20,22-nonaene] gave an IC50 in test [1] of 501 nM.
